Reference: patent US20240239752A1, “BICYCLIC HETEROAROMATIC INHIBITORS OF KLK5” (BioCryst Pharmaceuticals, Inc., priority 2021, published 2024)
pIC50: −log10 of the molar value.

molecular target: T1, recombinant human KLK5 (Homo sapiens, UniProt Q9Y337); assay: Kallikrein (KLK) 5 enzymatic assay (Boc-VPR-AMC fluorogenic substrate); assay type: biochemical; conditions: recombinant human KLK5 0.1 μg/well, Boc-VPR-AMC 100 μM, pH 7.5, room temperature, 1% DMSO; tested a minimum of three times
T1 construct: purchased Novoprotein or R&D Systems C415 or 1108-SE
T1 sequence (Q9Y337 23-293): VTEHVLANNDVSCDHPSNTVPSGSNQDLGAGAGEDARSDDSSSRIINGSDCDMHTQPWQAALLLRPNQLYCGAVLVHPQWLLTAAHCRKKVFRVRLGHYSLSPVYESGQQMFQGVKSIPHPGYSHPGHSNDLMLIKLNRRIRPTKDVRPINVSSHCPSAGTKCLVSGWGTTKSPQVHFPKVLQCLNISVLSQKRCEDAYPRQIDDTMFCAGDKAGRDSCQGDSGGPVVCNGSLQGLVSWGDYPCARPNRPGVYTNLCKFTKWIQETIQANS
Description: Kallikrein-5 (KLK5) is a member of the serine protease family of proteolytic enzymes, confirmed to have trypsin-like activity (Michael I P, et al. Biochemical and enzymatic characterization of human kallikrein 5 (hK5), a novel serine protease potentially involved in cancer progression (J. Biol. Chem. 2005 Apr. 15; 280 (15): 14628-35). Boc-VPR-AMC is a fluorogenic peptide substrate composed of the short peptide chain, Valine-Proline-Arginine (VPR) and the fluorophore, 7-amino-4-methylcoumarin (AMC). KLK5 is able to cleave the fluorogenic peptide substrate Boc-VPR-AMC, releasing the AMC fluorophore, which causes a fluorescent emission in proportion with the enzymatic activity of KLK5. The KLK5 enzymatic activity is monitored by measuring fluorescent emission at wavelengths of 380 nm (excitation) and 460 nm (emission).
The IC50 value of compounds against KLK5 (i.e., the concentration of the compound that inhibits 50% of the enzymatic activity) was calculated according to the procedure reported by R&D systems (Recombinant human KLK5, Catalog Number: 1108-SE), with the exception the pH of the assay was modified from 8.0 to 7.5. Specifically, recombinant human KLK5 (Novoprotein Catalog #C415 or R&D systems Catalog #1108-SE) and fluorogenic peptide Boc-VPR-AMC substrate (R&D Catalog #ES011) were each separately diluted in assay buffer (0.1 M NaH2PO4 buffer, pH 7.5). The compounds of the disclosure were dissolved in DMSO at a concentration of 10 mM. A portion of this stock solution was added to the recombinant human KLK5 solution to provide a desired concentration of the compounds and the mixture was incubated at room temperature. The reaction was initiated by the addition of the fluorogenic peptide substrate at room temperature. The final concentration of recombinant human KLK5 was 0.1 μg/well and the final concentration of the fluorogenic substrate was 100 μM (final volume of 100 μL, 1% DMSO). The assays were performed in 96 well F16 Black Maxisorp Plate (Nunc Catalog #475515). Controls included assay buffer alone and enzyme solutions to which DMSO was added. The reaction rates were measured spectrophotometrically by excitation at 380 nm and emission at 460 nm on a Biotek Synergy H1 plate reader.
The reaction rate for enzyme alone was compared to the reaction rate of enzyme in the presence of compound and the percent inhibition was calculated as shown below:
Percent Inhibition=[Rate with inhibitor/Rate without inhibitor)]×100
An IC50 indicates a compound concentration that inhibits 50% of the enzymatic activity. Compounds were tested a minimum of three times.

Row | pIC50 | Compound
1 | > 6.00 | Nc1nccc2c(-c3ccc4c(c3)c(COc3ccccc3CC(=O)O)nn4C3CCC3)cccc12 [Compound 69b, 2-(2-((5-(1-aminoisoquinolin-5-yl)-1-cyclobutyl-1H-indazol-3-yl)methoxy)phenyl)acetic acid]
2 | < 5.00 | CC(C)n1nc(COc2ccccc2CC(=O)O)c2cc(-c3ccc4cccc(N)c4c3)ccc21 [Compound 70c, 2-(2-((5-(8-aminonaphthalen-2-yl)-1-isopropyl-1H-indazol-3-yl)methoxy)phenyl)acetic acid]
3 | > 6.00 | COc1ccc(CC(=O)O)c(OCc2nn(C)c3ccc(-c4ccc5ccnc(N)c5c4)cc23)c1 [Compound 71d, 2-(2-((5-(1-aminoisoquinolin-7-yl)-1-methyl-1H-indazol-3-yl)methoxy)-4-methoxyphenyl)acetic acid]
4 | > 6.00 | COc1ccc(CC(=O)O)c(OCc2nn(C)c3ccc(-c4cccc5c(N)nccc45)cc23)c1 [Compound 72b, 2-(2-((5-(1-aminoisoquinolin-5-yl)-1-methyl-1H-indazol-3-yl)methoxy)-4-methoxyphenyl)acetic acid]
5 | < 5.00 | COc1ncc(N)c2cc(-c3ccc4c(c3)c(COc3ccccc3CC(=O)O)nn4C(C)C)ccc12 [Compound 73d, 2-(2-((5-(4-amino-1-methoxyisoquinolin-6-yl)-1-isopropyl-1H-indazol-3-yl)methoxy)phenyl)acetic acid]
6 | 5.00 to 6.00 | COc1cnc(N)c2cc(-c3ccc4c(c3)c(COc3ccccc3CC(=O)O)nn4C(C)C)ccc12 [Compound 74d, 2-(2-((5-(1-amino-4-methoxyisoquinolin-7-yl)-1-isopropyl-1H-indazol-3-yl)methoxy)phenyl)acetic acid]
7 | < 5.00 | CC(C)n1nc(COc2ccccc2CC(=O)O)c2cc(-c3ccc4cnc(N)cc4c3)ccc21 [Compound 75c, 2-(2-((5-(3-aminoisoquinolin-6-yl)-1-isopropyl-1H-indazol-3-yl)methoxy)phenyl)acetic acid]
8 | < 5.00 | CC(C)n1nc(COc2ccccc2CC(=O)O)c2cc(-c3ccc4c(c3)C(N)CO4)ccc21 (stereo not shown) [Compound 76c, 2-(2-((5-(3-amino-2,3-dihydrobenzofuran-5-yl)-1-isopropyl-1H-indazol-3-yl)methoxy)phenyl)acetic acid]
9 | < 5.00 | CC(C)n1nc(COc2ccccc2CC(=O)O)c2cc(-c3ccc4c(c3)C(O)CC4)ccc21 (stereo not shown) [Compound 77c, 2-(2-((5-(3-hydroxy-2,3-dihydro-1H-inden-5-yl)-1-isopropyl-1H-indazol-3-yl)methoxy)phenyl)acetic acid]
10 | 5.00 to 6.00 | Cc1ccc2c(N)nccc2c1-c1ccc2c(c1)c(COc1ccccc1CC(=O)O)nn2C(C)C [Compound 78d, 2-(2-((5-(1-amino-6-methylisoquinolin-5-yl)-1-isopropyl-1H-indazol-3-yl)methoxy)phenyl)acetic acid]
11 | < 5.00 | CC(C)n1nc(COc2ccccc2CC(=O)O)c2cc(-c3ccc4c(c3)[C@H](N)CO4)ccc21 [Compound 79c, (S)-2-(2-((5-(3-amino-2,3-dihydrobenzofuran-5-yl)-1-isopropyl-1H-indazol-3-yl)methoxy)phenyl)acetic acid]

Continued, compound first:

Row | Compound | pIC50
12 | CC(C)n1nc(COc2ccccc2CC(=O)O)c2cc(-c3cccc(-c4nnc[nH]4)c3)ccc21 [Compound 52c, 2-(2-((5-(3-(4H-1,2,4-triazol-3-yl)phenyl)-1-isopropyl-1H-indazol-3-yl)methoxy)phenyl)acetic acid] | < 5.00
13 | CC(C)n1nc(COc2ccccc2CC(=O)O)c2cc(-c3ccnc4c(N)cccc34)ccc21 [Compound 53c, 2-(2-((5-(8-aminoquinolin-4-yl)-1-isopropyl-1H-indazol-3-yl)methoxy)phenyl)acetic acid] | < 5.00
14 | CC(C)n1nc(COc2ccccc2CC(=O)O)c2cc(-c3cccc4c(N)nn(C)c34)ccc21 [Compound 54c, 2-(2-((3′-amino-1-isopropyl-1′-methyl-1H, 1′H-[5,7′-biindazol]-3-yl)methoxy)phenyl)acetic acid] | < 5.00
15 | CC(C)n1nc(COc2ccccc2CC(=O)O)c2cc(-c3ccc4ncc(N)n4n3)ccc21 [Compound 55c, 2-(2-((5-(3-aminoimidazo[1,2-b]pyridazin-6-yl)-1-isopropyl-1H-indazol-3-yl)methoxy)phenyl)acetic acid] | < 5.00
16 | CC(C)n1nc(COc2ccccc2CC(=O)O)c2cc(-c3cccc4cnc(N)cc34)ccc21 [Compound 56c, 2-(2-((5-(3-aminoisoquinolin-5-yl)-1-isopropyl-1H-indazol-3-yl)methoxy)phenyl)acetic acid] | < 5.00
17 | Cn1nc(COc2ccccc2CC(=O)O)c2cc(-c3ccc4ccnc(N)c4c3)ccc21 [Compound 57b, 2-(2-((5-(1-aminoisoquinolin-7-yl)-1-methyl-1H-indazol-3-yl)methoxy)phenyl)acetic acid] | > 6.00
18 | Cn1nc(COc2ccccc2CC(=O)O)c2cc(-c3cccc4c(N)nccc34)ccc21 [Compound 58b, 2-(2-((5-(1-aminoisoquinolin-5-yl)-1-methyl-1H-indazol-3-yl)methoxy)phenyl)acetic acid] | > 6.00
19 | N=C(N)c1cccc(-c2ccc3c(c2)c(COc2ccccc2CC(=O)O)nn3C2CC2)c1 [Compound 59d, 2-(2-((5-(3-carbamimidoylphenyl)-1-cyclopropyl-1H-indazol-3-yl)methoxy)phenyl)acetic acid] | > 6.00
20 | Nc1nccc2ccc(-c3ccc4c(c3)c(COc3ccccc3CC(=O)O)nn4C3CC3)cc12 [Compound 60b, 2-(2-((5-(1-aminoisoquinolin-7-yl)-1-cyclopropyl-1H-indazol-3-yl)methoxy)phenyl)acetic acid] | > 6.00
21 | COc1ccc(CC(=O)O)c(OCc2nn(C(C)C)c3ccc(-c4ccc5ccnc(N)c5c4)cc23)c1 [Compound 61b, 2-(2-((5-(1-aminoisoquinolin-7-yl)-1-isopropyl-1H-indazol-3-yl)methoxy)-4-methoxyphenyl)acetic acid] | > 6.00
22 | Cc1ccc(CC(=O)O)c(OCc2nn(C(C)C)c3ccc(-c4ccc5ccnc(N)c5c4)cc23)c1 [Compound 62c, 2-(2-((5-(1-aminoisoquinolin-7-yl)-1-isopropyl-1H-indazol-3-yl)methoxy)-4-methylphenyl)acetic acid] | > 6.00
23 | CC(C)n1nc(C(=O)Nc2ccccc2CC(=O)O)c2cc(-c3ccc4ccnc(N)c4c3)ccc21 [Compound 63d, 2-(2-(5-(1-aminoisoquinolin-7-yl)-1-isopropyl-1H-indazole-3-carboxamido)phenyl)acetic acid] | 5.00 to 6.00
24 | CC(C)n1nc(COc2ccccc2CC(=O)O)c2cc(-c3cccc(C(=N)N)c3F)ccc21 [Compound 64d, 2-(2-((5-(3-carbamimidoyl-2-fluorophenyl)-1-isopropyl-1H-indazol-3-yl)methoxy)phenyl)acetic acid] | > 6.00
25 | Nc1nccc2c(-c3ccc4c(c3)c(COc3ccccc3CC(=O)O)nn4C3CC3)cccc12 [Compound 65b, 2-(2-((5-(1-aminoisoquinolin-5-yl)-1-cyclopropyl-1H-indazol-3-yl)methoxy)phenyl)acetic acid] | > 6.00
26 | COc1ccc(CC(=O)O)c(OCc2nn(C3CC3)c3ccc(-c4ccc5ccnc(N)c5c4)cc23)c1 [Compound 66e, 2-(2-((5-(1-aminoisoquinolin-7-yl)-1-cyclopropyl-1H-indazol-3-yl)methoxy)-4-methoxyphenyl)acetic acid] | > 6.00
27 | CC(C)n1nc(COc2ccccc2CC(=O)O)c2cc(-c3ccc4c(N)n[nH]c4c3)ccc21 [Compound 67c, 2-(2-((3′-amino-1-isopropyl-1H, 1′H-[5,6′-biindazol]-3-yl)methoxy)phenyl)acetic acid] | < 5.00
28 | CC(C)n1nc(COc2ccccc2CC(=O)O)c2cc(-c3cnc4[nH]nc(N)c4c3)ccc21 [Compound 68c, 2-(2-((5-(3-amino-1H-pyrazolo[3,4-b]pyridin-5-yl)-1-isopropyl-1H-indazol-3-yl)methoxy)phenyl)acetic acid] | < 5.00
